Patent US10669261B2, “Heteroarylhydroxypyrimidinones as agonists of the APJ receptor” (BRISTOL-MYERS SQUIBB COMPANY, priority 2015, dated 2020)

The molecules below were run against T1, human APJ receptor (Homo sapiens, UniProt P35414) (assay: Intracellular cAMP accumulation assay (APJ hcAMP, HTRF)). Conditions: Table 2; HEK293 cells stably expressing human APJ receptor; read-out: hAPJ cAMP EC50 Potency range.
T1 construct: expressed in transfected cells
T1 sequence (P35414 1-380): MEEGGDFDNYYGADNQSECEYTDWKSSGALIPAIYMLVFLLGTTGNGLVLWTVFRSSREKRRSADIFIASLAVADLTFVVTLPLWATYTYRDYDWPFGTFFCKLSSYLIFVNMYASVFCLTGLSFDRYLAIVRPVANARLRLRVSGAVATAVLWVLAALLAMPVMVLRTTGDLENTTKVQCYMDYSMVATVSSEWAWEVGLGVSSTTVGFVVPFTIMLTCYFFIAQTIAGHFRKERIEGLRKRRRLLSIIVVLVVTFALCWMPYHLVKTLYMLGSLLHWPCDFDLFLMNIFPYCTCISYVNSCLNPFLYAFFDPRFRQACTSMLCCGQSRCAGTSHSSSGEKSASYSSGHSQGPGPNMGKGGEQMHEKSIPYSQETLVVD
Type: cell-based
Procedure, shortened: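 Inhibition of forskolin (2 μM)-driven cAMP, with […], measured by HTRF after 30 min room-temperature compound exposure of stably transfected HEK293 cells. cAMP read from a standard curve; variable-slope fit gives EC50, and maximal inhibition is normalised to (Pyr1)apelin-13 as 100%.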
Work on `CCCCc1nc(O)c(-c2nnc(Cc3noc4ccccc34)o2)c(=O)n1[C@@H](COC)c1ccccc1` [Example 91, 5-{5-[(1,2-benzoxazol-3-yl)methyl]-1,3,4-oxadiazol-2-yl}-2-butyl-6-hydroxy-3-[(1R)-2-methoxy-1-phenylethyl]-3,4-dihydropyrimidin-4-one] yielded an EC50 of 10 to 100 nM.
In the case of `CCCCc1nc(O)c(-c2nnc(Cc3noc4ccccc34)o2)c(=O)n1[C@H]1CCCc2ccccc21` [Example 92, 5-{5-[(1,2-benzoxazol-3-yl)methyl]-1,3,4-oxadiazol-2-yl}-2-butyl-6-hydroxy-3-[(1S)-1,2,3,4-tetrahydronaphthalen-1-yl]-3,4-dihydropyrimidin-4-one], the EC50 is reported as 100 to 300 nM.
`CCCCc1nc(O)c(-c2nnc(Cc3csc(C)n3)o2)c(=O)n1[C@H](COC)c1ccccc1` [Example 93, 2-butyl-6-hydroxy-3-[(1S)-2-methoxy-1-phenylethyl]-5-{5-[(2-methyl-1,3-thiazol-4-yl)methyl]-1,3,4-oxadiazol-2-yl}-3,4-dihydropyrimidin-4-one] gave an EC50 of 100 to 300 nM.
Molecule `CCCCc1nc(O)c(-c2nnc(Cc3csc(C)n3)o2)c(=O)n1[C@@H](COC)c1ccccc1` [Example 94, 2-butyl-6-hydroxy-3-[(1R)-2-methoxy-1-phenylethyl]-5-{5-[(2-methyl-1,3-thiazol-4-yl)methyl]-1,3,4-oxadiazol-2-yl}-3,4-dihydropyrimidin-4-one] has an EC50 of 0.01 to 10 nM.
Molecule `CCCCc1nc(O)c(-c2nnc(Cc3csc(C)n3)o2)c(=O)n1[C@@H](C)c1ccc(F)cc1` [Example 95, 2-butyl-3-[(1S)-1-(4-fluorophenyl)ethyl]-6-hydroxy-5-{5-[(2-methyl-1,3-thiazol-4-yl)methyl]-1,3,4-oxadiazol-2-yl}-3,4-dihydropyrimidin-4-one] has an EC50 of 10 to 100 nM.
In the case of `CCCCc1nc(O)c(-c2nnc(Cc3noc4ccccc34)o2)c(=O)n1[C@H]1CCc2ccccc21` [Example 96, 5-{5-[(1,2-benzoxazol-3-yl)methyl]-1,3,4-oxadiazol-2-yl}-2-butyl-3-[(1S)-2,3-dihydro-1H-inden-1-yl]-6-hydroxy-3,4-dihydropyrimidin-4-one], the EC50 is reported as 10 to 100 nM.
`CCCCc1nc(O)c(-c2nnc(Cc3csc(C)n3)o2)c(=O)n1[C@H]1CCc2ccccc21` [Example 97, 2-butyl-3-[(1S)-2,3-dihydro-1H-inden-1-yl]-6-hydroxy-5-{5-[(2-methyl-1,3-thiazol-4-yl)methyl]-1,3,4-oxadiazol-2-yl}-3,4-dihydropyrimidin-4-one] was tested, and the EC50 was 0.01 to 10 nM.
Molecule `CCCCc1nc(O)c(-c2nnc(Cc3ccc(Cl)cn3)o2)c(=O)n1[C@@H](C)c1ccc(F)cc1` [Example 98, 2-butyl-5-{5-[(5-chloropyridin-2-yl)methyl]-1,3,4-oxadiazol-2-yl}-3-[(1S)-1-(4-fluorophenyl)ethyl]-6-hydroxy-3,4-dihydropyrimidin-4-one] has an EC50 of 0.01 to 10 nM.
`CCCCc1nc(O)c(-c2nnc(Cc3ccc(Cl)cn3)o2)c(=O)n1[C@H](COC)c1ccccc1` [Example 99] gave an EC50 of 10 to 100 nM.
`CCCCc1nc(O)c(-c2nnc(Cc3ccc(Cl)cn3)o2)c(=O)n1[C@H]1CCCc2ccccc21` [Example 100, 2-butyl-5-{5-[(5-chloropyridin-2-yl)methyl]-1,3,4-oxadiazol-2-yl}-6-hydroxy-3-[(1S)-1,2,3,4-tetrahydronaphthalen-1-yl]-3,4-dihydropyrimidin-4-one] showed an EC50 of 0.01 to 10 nM.
In the case of `CCCCc1nc(O)c(-c2nnc(Cc3ccc(Cl)cn3)o2)c(=O)n1[C@@H](COC)c1ccccc1` [Example 101, 2-butyl-5-{5-[(5-chloropyridin-2-yl)methyl]-1,3,4-oxadiazol-2-yl}-6-hydroxy-3-[(1R)-2-methoxy-1-phenylethyl]-3,4-dihydropyrimidin-4-one], the EC50 is reported as 0.01 to 10 nM.
With `CCCCc1nc(O)c(-c2nnc(Cc3noc4ccccc34)o2)c(=O)n1[C@@H](C)c1ccc(OC)cc1` [Example 102, 5-{5-[(1,2-benzoxazol-3-yl)methyl]-1,3,4-oxadiazol-2-yl}-2-butyl-6-hydroxy-3-[(1S)-1-(4-methoxyphenyl)ethyl]-3,4-dihydropyrimidin-4-one] the EC50 was 100 to 300 nM.
With `CCCCc1nc(O)c(-c2nnc(Cc3noc4ccccc34)o2)c(=O)n1[C@@H](C)c1cccc(C#N)c1` [Example 103, 3-[(1S)-1-(5-{5-[(1,2-benzoxazol-3-yl)methyl]-1,3,4-oxadiazol-2-yl}-2-butyl-4-hydroxy-6-oxo-1,6-dihydropyrimidin-1-yl)ethyl]benzonitrile] the EC50 was 10 to 100 nM.
Molecule `CCCCc1nc(O)c(-c2nnc(Cc3csc(C)n3)o2)c(=O)n1[C@@H](C)c1cccc(C#N)c1` [Example 104, 3-[(1S)-1-(2-butyl-4-hydroxy-5-{5-[(2-methyl-1,3-thiazol-4-yl)methyl]-1,3,4-oxadiazol-2-yl}-6-oxo-1,6-dihydropyrimidin-1-yl)ethyl]benzonitrile] has an EC50 of 10 to 100 nM.
`CCCCc1nc(O)c(-c2nnc(Cc3ccc(Cl)cn3)o2)c(=O)n1[C@@H](CCC)c1ccccc1` [Example 105, 2-butyl-5-{5-[(5-chloropyridin-2-yl)methyl]-1,3,4-oxadiazol-2-yl}-6-hydroxy-3-[(1S)-1-phenylbutyl]-3,4-dihydropyrimidin-4-one] showed an EC50 of 0.01 to 10 nM.
In the case of `CCCCc1nc(O)c(-c2nnc(Cc3csc(C)n3)o2)c(=O)n1[C@@H](CCC)c1ccccc1` [Example 106, 2-butyl-6-hydroxy-5-{5-[(2-methyl-1,3-thiazol-4-yl)methyl]-1,3,4-oxadiazol-2-yl}-3-[(1S)-1-phenylbutyl]-3,4-dihydropyrimidin-4-one], the EC50 is reported as 10 to 100 nM.
Molecule `CCCCc1nc(O)c(-c2nnc(Cc3noc4ccccc34)o2)c(=O)n1[C@@H](CCC)c1ccccc1` [Example 107, 5-{5-[(1,2-benzoxazol-3-yl)methyl]-1,3,4-oxadiazol-2-yl}-2-butyl-6-hydroxy-3-[(1S)-1-phenylbutyl]-3,4-dihydropyrimidin-4-one] has an EC50 of 10 to 100 nM.
For `CCCCc1nc(O)c(-c2nnc(Cc3ccc(Cl)cn3)o2)c(=O)n1[C@@H](C)c1cccc(C#N)c1` [Example 108, 3-[(1S)-1-(2-butyl-5-{5-[(5-chloropyridin-2-yl)methyl]-1,3,4-oxadiazol-2-yl}-4-hydroxy-6-oxo-1,6-dihydropyrimidin-1-yl)ethyl]benzonitrile], the EC50 was 0.01 to 10 nM.
`CCCCc1nc(O)c(-c2nnc(Cc3ccc(Cl)cn3)o2)c(=O)n1C(C)c1ccncc1` (stereo not shown) [Example 109, 2-butyl-5-{5-[(5-chloropyridin-2-yl)methyl]-1,3,4-oxadiazol-2-yl}-6-hydroxy-3-[1-(pyridin-4-yl)ethyl]-3,4-dihydropyrimidin-4-one] showed an EC50 of 0.01 to 10 nM.
Work on `CCCCc1nc(O)c(-c2nnc(Cc3noc4ccccc34)o2)c(=O)n1C(C)c1ccncc1` (stereo not shown) [Example 110, 5-{5-[(1,2-benzoxazol-3-yl)methyl]-1,3,4-oxadiazol-2-yl}-2-butyl-6-hydroxy-3-[1-(pyridin-4-yl)ethyl]-3,4-dihydropyrimidin-4-one] yielded an EC50 of 10 to 100 nM.
`CCCCc1nc(O)c(-c2nnc(Cc3ccc(Cl)cn3)o2)c(=O)n1C(C)c1ccncc1` (stereo not shown) [Example 111, 2-butyl-5-{5-[(5-chloropyridin-2-yl)methyl]-1,3,4-oxadiazol-2-yl}-6-hydroxy-3-[1-(pyridin-4-yl)ethyl]-3,4-dihydropyrimidin-4-one] was tested, and the EC50 was 0.01 to 10 nM.
With `CCCCc1nc(O)c(-c2nnc(Cc3csc(C)n3)o2)c(=O)n1C(c1ccccc1)C(C)C` (stereo not shown) [Example 112, 2-butyl-6-hydroxy-5-{5-[(2-methyl-1,3-thiazol-4-yl)methyl]-1,3,4-oxadiazol-2-yl}-3-(2-methyl-1-phenylpropyl)-3,4-dihydropyrimidin-4-one] the EC50 was 10 to 100 nM.
In the case of `CCCCc1nc(O)c(-c2nnc(Cc3ccc(Cl)cn3)o2)c(=O)n1C(c1ccccc1)C(C)C` (stereo not shown) [Example 113, 2-butyl-5-{5-[(5-chloropyridin-2-yl)methyl]-1,3,4-oxadiazol-2-yl}-6-hydroxy-3-(2-methyl-1-phenylpropyl)-3,4-dihydropyrimidin-4-one], the EC50 is reported as 0.01 to 10 nM.
For `CCCCc1nc(O)c(-c2nnc(Cc3noc4ccccc34)o2)c(=O)n1[C@@H](C)c1cccc(OC)c1` [Example 114, 5-{5-[(1,2-benzoxazol-3-yl)methyl]-1,3,4-oxadiazol-2-yl}-2-butyl-6-hydroxy-3-[(1S)-1-(3-methoxyphenyl)ethyl]-3,4-dihydropyrimidin-4-one], the EC50 was 10 to 100 nM.
In the case of `CCCCc1nc(O)c(-c2nnc(Cc3noc4ccccc34)o2)c(=O)n1C(c1ccccc1)C(C)C` (stereo not shown) [Example 115, 5-{5-[(1,2-benzoxazol-3-yl)methyl]-1,3,4-oxadiazol-2-yl}-2-butyl-6-hydroxy-3-(2-methyl-1-phenylpropyl)-3,4-dihydropyrimidin-4-one], the EC50 is reported as 10 to 100 nM.
In the case of `CCCCc1nc(O)c(-c2nnc(Cc3ccc(Cl)cn3)o2)c(=O)n1[C@@H](C)c1cccc(OC)c1` [Example 116, 2-butyl-5-{5-[(5-chloropyridin-2-yl)methyl]-1,3,4-oxadiazol-2-yl}-6-hydroxy-3-[(1S)-1-(3-methoxyphenyl)ethyl]-3,4-dihydropyrimidin-4-one], the EC50 is reported as 0.01 to 10 nM.
`CCCCc1nc(O)c(-c2nnc(Cc3noc4ccccc34)o2)c(=O)n1[C@@H]1CCc2ccccc21` [Example 117, 5-{5-[(1,2-benzoxazol-3-yl)methyl]-1,3,4-oxadiazol-2-yl}-2-butyl-3-[(1R)-2,3-dihydro-1H-inden-1-yl]-6-hydroxy-3,4-dihydropyrimidin-4-one] was tested, and the EC50 was 100 to 300 nM.
With `CCCCc1nc(O)c(-c2nnc(Cc3ccc(Cl)cn3)o2)c(=O)n1[C@@H](CC)c1ccccc1` [Example 118, 2-butyl-5-{5-[(5-chloropyridin-2-yl)methyl]-1,3,4-oxadiazol-2-yl}-6-hydroxy-3-[(1S)-1-phenylpropyl]-3,4-dihydropyrimidin-4-one] the EC50 was 0.01 to 10 nM.
